# Assay results taken from patent US8067424B2, “Selective inhibitors for cyclin-dependent kinases” (Emory University, priority 2007, dated 2011).
# Where two headings read alike, the source gives them in different places.
# How the values were obtained:
# [1] = molecular target: T1, CDK7 complex (CDK7, Cyclin H, MAT1) (Homo sapiens, UniProt P50613); assay: CDK7/CycH/MAT1 trimeric complex kinase assay (PKLight luciferase); assay type: biochemical; details: 100 nM; mean of three (standard deviation); read-out: CDK7 % remaining kinase activity after incubation with 100 nM of compound
# T1 construct: purchased Proqinase GmbH, Germany
# T1 sequence (P50613 whole entry): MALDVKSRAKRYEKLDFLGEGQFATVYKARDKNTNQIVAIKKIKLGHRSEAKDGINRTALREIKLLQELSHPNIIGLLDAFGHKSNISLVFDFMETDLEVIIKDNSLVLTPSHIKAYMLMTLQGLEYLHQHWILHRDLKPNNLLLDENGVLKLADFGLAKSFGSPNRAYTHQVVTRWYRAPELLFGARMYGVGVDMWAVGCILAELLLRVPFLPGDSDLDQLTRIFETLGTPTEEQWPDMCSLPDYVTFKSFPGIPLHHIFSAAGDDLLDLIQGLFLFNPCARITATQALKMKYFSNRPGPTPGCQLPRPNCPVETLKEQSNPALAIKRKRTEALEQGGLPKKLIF
# T1 sequence (P51946 whole entry partner): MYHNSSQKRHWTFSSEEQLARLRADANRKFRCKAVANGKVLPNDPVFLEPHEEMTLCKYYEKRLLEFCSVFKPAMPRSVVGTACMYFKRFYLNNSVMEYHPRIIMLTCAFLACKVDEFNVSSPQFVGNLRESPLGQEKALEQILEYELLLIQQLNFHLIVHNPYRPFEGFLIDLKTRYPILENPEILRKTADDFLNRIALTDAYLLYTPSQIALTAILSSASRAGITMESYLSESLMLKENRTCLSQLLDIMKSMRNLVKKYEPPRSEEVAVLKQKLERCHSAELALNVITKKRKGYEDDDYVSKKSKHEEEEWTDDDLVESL
# T1 sequence (P51948 whole entry partner): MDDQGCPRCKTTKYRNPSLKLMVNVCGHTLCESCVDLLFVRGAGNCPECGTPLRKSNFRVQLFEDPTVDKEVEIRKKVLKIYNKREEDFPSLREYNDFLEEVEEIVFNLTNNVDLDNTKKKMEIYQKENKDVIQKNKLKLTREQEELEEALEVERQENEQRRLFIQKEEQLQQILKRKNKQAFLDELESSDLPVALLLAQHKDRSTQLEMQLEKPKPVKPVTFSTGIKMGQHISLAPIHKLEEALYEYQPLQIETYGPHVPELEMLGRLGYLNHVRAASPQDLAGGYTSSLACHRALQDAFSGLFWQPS
# Summary of the method: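 Compound was preincubated with the kinase for 30 min at 30 °C; the reaction then ran for 20 min at 30 °C with 2 μM ATP final. Remaining ATP was measured by PKLight luciferase luminescence at 560 nm. Values were corrected against the no-enzyme control and expressed relative to enzyme-only activity (100%), in triplicate.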
# CDK2/cyclin A complex = molecular target: T2, CDK2/cyclin A complex (Homo sapiens, UniProt P24941); assay: CDK2/cyclin A kinase assay (as for CDK7); assay type: biochemical; details: for remaining activity at 0.1 µM: 100 nM, mean of three (standard deviation), read-out: CDK2 % remaining kinase activity after incubation with 100 nM of compound; for IC50: Table 7, mean of three experiments, read-out: CDK2 kinase inhibition in vitro (IC50)
# T2 construct: purchased Proqinase GmbH, Germany
# Summary of the method: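 Run as the CDK7 protocol with 50 ng CDK2/cyclin A or 100 ng CDK9/cyclin T; compound 30 min at 30 °C, then 2 μM ATP final for 20 min at 30 °C. ATP depletion by luciferase luminescence (PKLight), triplicate, normalised to no-enzyme and enzyme controls.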
# SR = details: for Mean Optical Densities / Percent Growth: SR
# HOP-62 = assay: cells; details: Homo sapiens
# NCI-H23 = assay: cells; details: Homo sapiens
# OVCAR-5 = assay: cells; details: Homo sapiens
# NCI/ADR-RES = assay: cells; details: Homo sapiens
# [2] = HCT-15, log10 concentration −4.0
# [3] = HCT-15, log10 concentration −5.0
# [4] = HCT-15, log10 concentration −6.0
# [5] = HCT-15, log10 concentration −7.0
# [6] = HCT-15, log10 concentration −8.0
# [7] = SF-539, log10 concentration −4.0
# [8] = SF-539, log10 concentration −5.0
# [9] = SF-539, log10 concentration −6.0
# [10] = SF-539, log10 concentration −7.0
# [11] = SF-539, log10 concentration −8.0
# [12] = SK-OV-3, log10 concentration −4.0
# [13] = SK-OV-3, log10 concentration −5.0
# [14] = SK-OV-3, log10 concentration −6.0
# [15] = SK-OV-3, log10 concentration −7.0
# [16] = SK-OV-3, log10 concentration −8.0
# [17] = CAKI-1, log10 concentration −4.0
# [18] = CAKI-1, log10 concentration −5.0
# [19] = CAKI-1, log10 concentration −6.0
# [20] = CAKI-1, log10 concentration −7.0
# [21] = CAKI-1, log10 concentration −8.0
# [22] = RXF 393, log10 concentration −4.0
# [23] = RXF 393, log10 concentration −5.0
# [24] = RXF 393, log10 concentration −6.0
# [25] = RXF 393, log10 concentration −7.0
# [26] = RXF 393, log10 concentration −8.0
smiles,measurement,setting,value
C=C[C@H](CO)Nc1cc(NCc2ccccc2)n2ncc(C(C)C)c2n1 [ICEC0065],remaining activity at 0.1 µM,[1],80%
same,remaining activity at 0.1 µM,CDK2/cyclin A complex,95%
same,IC50,CDK2/cyclin A complex,> 1000 nM
CC[C@H](CO)Nc1cc(NCc2ccccc2)n2ncc(C(C)C)c2n1 [ICEC0067],remaining activity at 0.1 µM,[1],49%
same,remaining activity at 0.1 µM,CDK2/cyclin A complex,100%
same,IC50,CDK2/cyclin A complex,> 1000 nM
"CC(C)c1cnn2c(NCc3ccccc3)cc(N[C@@H](CO)[C@H](O)CO)nc12 [ICEC0318, (3S)-3-(7-(Benzylamino)-3-isopropylpyrazolo[1,5-a]pyrimidin-5-ylamino)butane-1,2,4-triol]",TGI,SR; SR (Leukemia),>1.00E−4
same,Mean Optical Densities,SR; log10 concentration −4.0,0.239
same,Percent Growth,SR; log10 concentration −4.0,7%
same,Mean Optical Densities,SR; log10 concentration −5.0,0.244
same,Percent Growth,SR; log10 concentration −5.0,8%
same,Mean Optical Densities,SR; log10 concentration −6.0,0.275
same,Percent Growth,SR; log10 concentration −6.0,16%
same,Mean Optical Densities,SR; log10 concentration −7.0,0.394
same,Percent Growth,SR; log10 concentration −7.0,45%
same,Mean Optical Densities,SR; log10 concentration −8.0,0.548
same,Percent Growth,SR; log10 concentration −8.0,83%
same,TGI,HCT-15; HCT-15 (Colon Cancer),>1.00E−4
same,Mean Optical Densities,HCT-15; [2],0.268
same,Percent Growth,HCT-15; [2],2%
same,Mean Optical Densities,HCT-15; [3],0.286
same,Percent Growth,HCT-15; [3],3%
same,Mean Optical Densities,HCT-15; [4],0.481
same,Percent Growth,HCT-15; [4],21%
same,Mean Optical Densities,HCT-15; [5],1.262
same,Percent Growth,HCT-15; [5],90%
same,Mean Optical Densities,HCT-15; [6],1.354
same,Percent Growth,HCT-15; [6],98%
same,TGI,KM12; KM12 (Colon Cancer),>1.00E−4
same,Mean Optical Densities,"KM12; KM12, log10 concentration −4.0",0.305
same,Percent Growth,"KM12; KM12, log10 concentration −4.0",10%
same,Mean Optical Densities,"KM12; KM12, log10 concentration −5.0",0.304
same,Percent Growth,"KM12; KM12, log10 concentration −5.0",10%
same,Mean Optical Densities,"KM12; KM12, log10 concentration −6.0",0.318
same,Percent Growth,"KM12; KM12, log10 concentration −6.0",12%
same,Mean Optical Densities,"KM12; KM12, log10 concentration −7.0",0.802
same,Percent Growth,"KM12; KM12, log10 concentration −7.0",80%
same,Mean Optical Densities,"KM12; KM12, log10 concentration −8.0",1.036
same,Percent Growth,"KM12; KM12, log10 concentration −8.0",113%
same,TGI,SF-539; SF-539 (CNS Cancer),5.81E−7
same,Mean Optical Densities,SF-539; [7],0.138
same,Percent Growth,SF-539; [7],−81%
same,Mean Optical Densities,SF-539; [8],0.327
same,Percent Growth,SF-539; [8],−55%
same,Mean Optical Densities,SF-539; [9],0.540
same,Percent Growth,SF-539; [9],−25%
same,Mean Optical Densities,SF-539; [10],1.950
same,Percent Growth,SF-539; [10],82%
same,Mean Optical Densities,SF-539; [11],2.183
same,Percent Growth,SF-539; [11],98%
same,TGI,SK-OV-3; SK-OV-3 (Ovarian Cancer),>1.00E−4
same,Mean Optical Densities,SK-OV-3; [12],0.799
same,Percent Growth,SK-OV-3; [12],9%
same,Mean Optical Densities,SK-OV-3; [13],0.860
same,Percent Growth,SK-OV-3; [13],17%
same,Mean Optical Densities,SK-OV-3; [14],0.903
same,Percent Growth,SK-OV-3; [14],23%
same,Mean Optical Densities,SK-OV-3; [15],1.701
same,Percent Growth,SK-OV-3; [15],132%
same,Mean Optical Densities,SK-OV-3; [16],1.504
same,Percent Growth,SK-OV-3; [16],105%
same,TGI,CAKI-1; CAKI-1 (Renal Cancer),>1.00E−4
same,Mean Optical Densities,CAKI-1; [17],0.358
same,Percent Growth,CAKI-1; [17],2%
same,Mean Optical Densities,CAKI-1; [18],0.372
same,Percent Growth,CAKI-1; [18],5%
same,Mean Optical Densities,CAKI-1; [19],0.423
same,Percent Growth,CAKI-1; [19],18%
same,Mean Optical Densities,CAKI-1; [20],0.631
same,Percent Growth,CAKI-1; [20],71%
same,Mean Optical Densities,CAKI-1; [21],0.704
same,Percent Growth,CAKI-1; [21],90%
same,TGI,RXF 393; RXF 393 (Renal Cancer),5.27E−7
same,Mean Optical Densities,RXF 393; [22],0.239
same,Percent Growth,RXF 393; [22],−54%
same,Mean Optical Densities,RXF 393; [23],0.308
same,Percent Growth,RXF 393; [23],−40%
same,Mean Optical Densities,RXF 393; [24],0.333
same,Percent Growth,RXF 393; [24],−35%
same,Mean Optical Densities,RXF 393; [25],0.928
same,Percent Growth,RXF 393; [25],92%
same,Mean Optical Densities,RXF 393; [26],0.980
same,Percent Growth,RXF 393; [26],103%
same,TGI,PC-3; PC-3 (Prostate Cancer),>1.00E−4
same,Mean Optical Densities,"PC-3; PC-3, log10 concentration −4.0",0.173
same,Percent Growth,"PC-3; PC-3, log10 concentration −4.0",2%
same,Mean Optical Densities,"PC-3; PC-3, log10 concentration −5.0",0.200
same,Percent Growth,"PC-3; PC-3, log10 concentration −5.0",9%
same,Mean Optical Densities,"PC-3; PC-3, log10 concentration −6.0",0.218
same,Percent Growth,"PC-3; PC-3, log10 concentration −6.0",14%
same,Mean Optical Densities,"PC-3; PC-3, log10 concentration −7.0",0.486
same,Percent Growth,"PC-3; PC-3, log10 concentration −7.0",85%
same,Mean Optical Densities,"PC-3; PC-3, log10 concentration −8.0",0.532
same,Percent Growth,"PC-3; PC-3, log10 concentration −8.0",97%
same,GI50,HOP-62; HOP-62,243 nM
same,CC50,"HOP-62; HOP-62, read-out: LC50",> 100 µM
same,GI50,NCI-H23; NCI-H23,260 nM
same,CC50,"NCI-H23; NCI-H23, read-out: LC50",> 100 µM
same,GI50,OVCAR-5; OVCAR-5,305 nM
same,CC50,"OVCAR-5; OVCAR-5, read-out: LC50",> 100 µM
same,GI50,NCI/ADR-RES,2040 nM
same,CC50,NCI/ADR-RES; read-out: LC50,> 100 µM
